Data: paper PMC12669278, “VDAC1-interacting proteins: binding site mapping and their derived peptides induce apoptosis and multifaceted cellular effects” (Apoptosis, 2025)

Molecular target: purified VDAC1 (Homo sapiens, UniProt P21796)
Assay: Glass-bound peptide array probed with purified VDAC1 and anti-VDAC1 antibodies
Assay type: binding
Parameters: key: +: low; ++: medium; +++: high
Conditions: glass-bound peptide array incubated 4 h with purified VDAC1 (64 nM), chemiluminescence; for Spot intensity, detected using anti-VDAC1 internal sequence: antibody against VDAC1 amino acids 150-250; for Spot intensity, detected using anti-N-terminus VDAC1: antibody against VDAC1 N-terminus
Method: A customized peptide array was produced by INTAVIS Peptide Services (GmbH & Co. KG, Tübingen, Germany). It comprised 768 peptide sequences derived from 19 VDAC1-interacting proteins that were arrayed on a glass slide. Each peptide was composed of 25 amino acids with an overlap of 15 amino acids with the peptides before and following it.
The interaction of purified VDAC1 with glass-bound peptide arrays was assessed by washing the slide three times, 10 min each, with TBST (150 mM NaCl, 50 mM Tris/HCl, pH 7.4, 0.1% Tween-20), followed by overnight incubation with blocking buffer (TBS, pH 7.8, containing low-fat dry milk, 2.5%, w/v) at 4 °C. Then slides were incubated with purified VDAC1 in protein-interacting buffer (20 mM HEPES, 100 mM KCl, pH,7.4, PBS) for 4 h at room temperature (RT). After washing, with TBST, slides were incubated overnight at 4 °C with anti-VDAC1 antibody against a sequence of 150–250 amino acids or against the VDAC1-N-terminus. Slides were then washed with TBST, followed by the appropriate secondary anti-HRP conjugated antibody for 2 h at RT. They were washed again with TBST and developed using enhanced chemiluminescence EZ-ECL (Biological Industries), according to the manufacturer’s instructions. The signal was captured in the dark using FUSION-FX (Vilber Lourmat) software.

Chain of purified VDAC1 (P21796 whole entry, species assumed): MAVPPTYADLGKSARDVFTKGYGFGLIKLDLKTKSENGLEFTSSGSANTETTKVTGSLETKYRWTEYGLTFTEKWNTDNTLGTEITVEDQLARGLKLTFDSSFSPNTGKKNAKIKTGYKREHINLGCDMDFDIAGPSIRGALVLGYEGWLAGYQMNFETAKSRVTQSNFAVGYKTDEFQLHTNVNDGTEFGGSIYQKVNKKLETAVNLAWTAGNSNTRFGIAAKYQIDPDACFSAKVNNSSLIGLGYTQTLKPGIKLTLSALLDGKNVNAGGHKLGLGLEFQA

Row | Sequence | Spot intensity, detected using anti-VDAC1 internal sequence | Spot intensity, detected using anti-N-terminus VDAC1
1 | HVAENPSIQLLEGNPGPPADPDGGP [1L14, array peptide from MAVS] | +++ | –
2 | SNTTAIAEAWARLDHKFDLMYAKRA [2B6, array peptide from tubulin alpha 1b] | – | ++
3 | LIGIPPAPRGVPQIEVTFDIDANGI [2P3, array peptide from HSP-70] | – | +
4 | RVVALFYFASKLVLKALCTKVPELI [1B8, array peptide from BAX] | – | ++
5 | MGKVKVGVNGFGRIGRLVTRAAFNS [2B14, array peptide from GAPDH1] | – | +++
6 | SKLVLKALCTKVPELIRTIMGWTLD [1B9, array peptide from BAX] | – | +
7 | AAAATTVAWYQVSPLAARLLYPYLA [1H10, array peptide from TSPO] | ++ | –
8 | KVQRAVCMLSNTTAIAEAWARLDHK [2B5, array peptide from tubulin alpha 1b] | – | +
9 | GNLANVIRYFPTQALNFAFKDKYKQ [1F20, array peptide from ANT3] | + | +++
10 | FTEDELPYDDCVFGGQRLTL [2G5] | – | +
11 | QLTLENLQMLPESEDEESYDTESEF [2G2] | ++ | –
12 | KTGPNLHGLFGRKTGQAPGYSYTAA [1D9, array peptide from cytochrome c] | – | +
13 | SILEIQKGVFEVKSTNGDTFLGGED [2N23, array peptide from HSP-70] | +++ | +++
14 | DELYRQSLEIISRYLREQATGAKDT [2D23, array peptide from Mcl-1] | + | –
15 | LLGTFDLTGIPPAPRGVPQIEVTFE [2L23, array peptide from BiP1] | + | +++
16 | FKDKYKQIFLGGVDKHTQFWRYFAG [1F22, array peptide from ANT3] | – | +
17 | IFVGIKKKEERADLIAYLKKATNE [1D15, array peptide from cytochrome c] | + | ++
18 | TVPTPHLDGKHVVFGQVIKGIGVAR [1I7, array peptide from cyclophilin D] | – | +
19 | MVVEHPEFLKAGKEPGLQIWRVEKF [2G8, array peptide from gelsolin isoform b] | – | +++
20 | YKGGTSREGGQTAPASTRLFQVRAN [2I15, array peptide from gelsolin isoform b] | – | +
21 | DQGGWGLPLAESLKRLMSLSPGRPP [1B13, array peptide from BAX] | + | +++
22 | FVDWCPTGFKVGINYQPPTVVPGGD [2B2, array peptide from tubulin alpha 1b] | – | +
23 | KDFLAGGIAAAISKTAVAPIERVKL [1F13, array peptide from ANT3] | – | ++
24 | GGGPTSSEQIMKTGALLLQGFIQDR [1A21, array peptide from BAX] | – | +
25 | RAVQHREVQGFESATFLGYFKSGLK [2G18, array peptide from gelsolin isoform b] | – | +
